Results: US20230096761A1, “NOVEL COMPOSITION BASED ON POLYCAFFEOYLQUINIC ACIDS, COSMETIC USE THEREOF AND COSMETIC COMPOSITIONS COMPRISING SAME” (Societe D'Exploitation De Produits Pour Les Industries …, priority 2018, published 2023)
Marks after values point to notes of the source that are not given here.

Tested on: normal human keratinocytes
Experiment: Keratinocyte differentiation: filaggrin immunolabeling normalized to nuclei
Type: cell-based
Conditions: positive reference 1 mMol/L, 72 hours
Procedure: To do this, normal human keratinocytes were cultured at 37° C. and 5% CO2. After a period of 4 days, they were treated with the products whose action it is desired to evaluate. After culturing for a further 72 hours at 37° C. and 5% CO2 with the test products, the cell lawns were rinsed, dried and then fixed with glacial methanol. Filaggrin, a keratinocyte differentiation marker, was detected and quantified by fluorescent immunolabeling with an anti-filaggrin primary antibody and a fluorescent secondary antibody to reveal the former. The nuclei were detected and quantified by marking with Hoechst, a fluorescent stain which binds to DNA and thus labels the nuclei. This last labeling was performed to normalize the results obtained previously on filaggrin. An increase in the filaggrin (area of labeling)/nuclei (area of labeling) ratio is evidence of an increase in the differentiation of the epidermal keratinocytes, and consequently of reinforcement of the barrier effect of the epidermis, which constitutes one of the factors of the reinforcement of the state of moisturization of the skin. An increase in keratinocyte differentiation makes it possible to reinforce the barrier effect of the human epidermis, and consequently to decrease the unesthetic effects that may be caused by the dehydration of human skin.

In the case of `[Ca+2].[Cl-].[Cl-]` [CaCl2], the “Filaggrin (area of labeling)/nuclei (area of labeling)” value is reported as 0.0245 ± 0.0045 and the “% stimulation vs control” value (filaggrin/nuclei) is reported as 621* %.
